From US20060014704A1, “Compounds and their preparation for the treatment of Alzheimer's disease by inhibiting beta-amyloid peptide production” (priority 2004, published 2006)
Entries after “also recorded” stand apart in the source; their conditions may differ. Where two headings read alike, the source gives them in different places.

Columns and labels:
[1] = system: Aβ40 and Aβ42 production, CHO cells stably transfected with human APP695; experiment: Secreted Aβ40/Aβ42 ELISA in CHO cells expressing human APP (CHO-APP cells); assay type: cell-based, Chinese hamster; parameters: key to Aβ42-lowering activity: Aβ42-lowering activity (“Yes”); no profound effects (“No”); non-determined (“ND”); Ginsenosides that affected cell viability are indicated as “Cytotoxic.”; settings: for Aβ42-lowering activity: summary of Tables 1-3; for preference for Aβ42 vs. Aβ40 in cell-based assay: FIG. 6 / FIG. 12B; for production of Aβ42 in cells: general statement
Procedure: The CHO cells were treated with the indicated compounds (at 50 μg/ml) for 8 hrs. Aβ42 levels in the medium were measured by ELISA and normalized to intracellular full-length APP.
The potential effects of ginsenosides and their analogues in treating AD were examined. First, a number of ginsenosides were screened based on their effects on Aβ generation. The effects of various ginsenosides on Aβ (e.g., Aβ40 and Aβ42) production was initially accessed by incubating the Chinese hamster ovary (CHO) cells expressing human APP(CHO-APP cells) with each ginsenoside purified from unprocessed ginseng (known as “white ginseng”). These representative ginsenosides included Rb1, Rb2, Rc, Rd, Re, Re, Rg1 and Rg2 and differ in their side chains and sugar moieties.
After 8 hours of incubation, the media were collected and the levels of secreted Aβ40 and Aβ42 were determined by ELISA.

[2] = target: T1, γ-secretase cleavage of p75 neurotrophin receptor (p75-ICD) (Homo sapiens, UniProt P49768); experiment: Cell-free generation of p75-ICD from membrane fractions of 293 cells overexpressing p75-AE; assay type: biochemical
T1 construct: Membrane fractions isolated from 293 cells overexpressing either APP (A), Notch-AE (B) or p75-AE (C); endogenous in cells; host or cells: 293 cells (membrane fractions); only the substrates APP, Notch-ΔE and p75-ΔE are overexpressed
Procedure: (§1) Membrane fractions isolated from 293 cells overexpressing either APP (A), Notch-AE (B) or p75-AE (C) and incubated in the presence of indicated compounds: Compound E (CpdE, general γ-secretase inhibitor), Rgk351, Rk1 and sulindac sulfide (SS).

[3] = target: T2, γ-secretase cleavage of Notch1 (NICD) (Homo sapiens, UniProt P49768); experiment: Cell-free generation of NICD from membrane fractions of 293 cells overexpressing Notch-AE; assay type: biochemical
T2 construct: Membrane fractions isolated from 293 cells overexpressing either APP (A), Notch-AE (B) or p75-AE (C); endogenous in cells; host or cells: 293 cells (membrane fractions); only the substrates APP, Notch-ΔE and p75-ΔE are overexpressed
Procedure: as §1

[4] = target: γ-secretase (Homo sapiens, UniProt P49768); experiment: Cell-free γ-secretase assay (CHAPSO-solubilized membrane fractions, recombinant substrates, Aβ ELISA); assay type: biochemical; settings: for Aβ42 generation in vitro: FIG. 15 (100 μM in A)
Procedure: (A) CHAPSO-solubilized membrane fractions were incubated with recombinant γ-secretase substrates together with the indicated compounds (at 100 μM) and the levels of Aβ42 and Aβ40 were determined by ELISA as described (27-29). (B) Dose-response of Aβ40 and Aβ42-lowering activity of Rk1 and (20S)Rg3 in a cell-free γ-secretase assay.
Next, the inhibitory effects of Rk1 and (20S)Rg3 on Aβ generation in an in vitro γ-secretase assay was studied. […] In contrast, naproxen, an NSAID without Aβ42-lowering activity, had no effects on Aβ42 production (FIG. 15A).

[5] = target: T3, γ-secretase cleavage of APP (AICD) (Homo sapiens, UniProt P49768); experiment: Cell-free generation of AICD from membrane fractions of 293 cells overexpressing APP; assay type: biochemical
T3 construct: Membrane fractions isolated from 293 cells overexpressing either APP (A), Notch-AE (B) or p75-AE (C); endogenous in cells; host or cells: 293 cells (membrane fractions); only the substrates APP, Notch-ΔE and p75-ΔE are overexpressed
Procedure: as §1

[6] = system: cell viability; experiment: Cell viability of treated cells; assay type: cell-based; parameters: key to affected cell viability (Cytotoxic): Aβ42-lowering activity (“Yes”); no profound effects (“No”); non-determined (“ND”); Ginsenosides that affected cell viability are indicated as “Cytotoxic.”
Procedure: (§2) CHO-APP/PS1 (A) and CHO-APP/ΔE9PS1 (B) cells were treated with the indicated compounds at 50 μM for 8 hrs and the levels of secreted Aβ40 and Aβ42 were determined as described in FIG. 1. […] The PS1-ΔE9 FAD mutation diminished the Aβ42 response to Rk1 treatment (B).
Tables 1-3 Structure of ginsenosides utilized in the study and their effects on Aβ42 generation. They differ at the two or three side chains attached to the common triterpene backbone known as dammarane. The common structure skeleton for each group of ginsenosides is shown in the top panel. Ginsenosides that harbor Aβ42-lowering activity are indicated in the far right column of the tables: Aβ42-lowering activity (“Yes”), no profound effects (“No”), and non-determined (“ND”). Ginsenosides that affected cell viability are indicated as “Cytotoxic.” Abbreviation for carbohydrates are as follows: Glc, D-glucopyranosyl; Ara (pyr), L-arabinopyranosyl; Ara (fur), L-arabinofuranyosyl; Rha, L-rhamnopyranosyl.
Steaming ginseng at high temperature gave rise to additional ginsenosides with enhanced pharmacological activity, including (20S)Rg3, Rk1 and Rg5 (22-25). […] Aβ40 levels were not changed by treatment with any of the ginsenosides tested. The potency of Aβ42-lowering activity was highest with Rk1 and (20S)Rg3. […] These studies provide a structure-activity relationship between the chemical structures of ginsenosides and Aβ42-lowering activity, further providing the basis for designing additional Aβ42-lowering analogues as well as for defining a class of compounds that harbor Aβ42-lowering activity.

[7] = system: Aβ40 and Aβ42 production, CHO-APP/PS1 cells; experiment: Secreted Aβ ELISA in CHO-APP/PS1 cells (wild-type PS1); assay type: cell-based, Chinese hamster; settings: for secretion of Aβ42: heat-processing derived ginsenosides; for secretion of Aβ42 / potency of Aβ42-reducing activity (rank): 50 μM, 8 hrs, FIG. 11
Procedure: (§3) The effects of Rg5 on the Aβ42 generation were much smaller as compared to Rgk351 and Rk1.
(§4) FIG. 10 depicts the effects of native ginsenosides on Aβ42 production. CHO cells stably transfected with human APP695 together with either wild-type (A, CHO-APP/PS1 cells) or ΔE9 FAD mutant (B, CHO-APP/ΔE9PS1 cells) forms of PS1 were used. Cells were treated with the indicated compounds (at 50 μM) for 8 hrs. Levels of secreted Aβ40 and Aβ42 in the medium were determined by ELISA and normalized to intracellular full-length APP. In CHO-APP/PS1 cells, average Aβ amounts in control samples were 320 pM for Aβ40 and 79 pM for Aβ42. The relative levels of Aβ and Aβ42 were normalized to values obtained from non-treated and vehicle-treated cells and are shown as % to control+s.d.). One of three representative experiments are shown.
as §2

[8] = system: full-length APP and APP C-terminal fragments, CHO-APP cells; experiment: Western blot analysis of APP processing in CHO-APP cells; assay type: cell-based, Chinese hamster; settings: cell lysates
From the text: (§5) FIG. 13. depicts an analysis of APP processing after Rk1 treatment. Steady-state levels of full-length APP and APP C-terminal fragments (APP-CTFs) were examined by Western blot analysis using anti-R1 antibody. […] Correlated Aβ42 levels for each sample are shown in the bottom panel.

[9] = system: Aβ42 production in mammalian cells; settings: Tae-Wan Kim et al., patent application pending; cited from earlier work
[10] = system: full-length APP and APP C-terminal fragments, Neuro2a-APPsw cells; experiment: Western blot analysis of APP processing in neuro2a cells expressing APPsw; assay type: cell-based, mouse; settings: neuro2a cells expressing APPsw
From the text: as §5

[11] = system: Aβ42 production, CHO-APP/ΔE9PS1 cells; experiment: Secreted Aβ ELISA in CHO cells co-expressing human APP and FAD mutant PS1 (ΔE9, L286V); assay type: cell-based, Chinese hamster; settings: 50 μM, 8 hrs, FIG. 11B vs 11A
Procedure: as §3, §4, §2

[12] = system: Aβ40 and Aβ42 secretion, primary embryonic cortical neurons; experiment: Aβ secretion in primary embryonic cortical neurons derived from Tg2576 transgenic mice; assay type: cell-based, mouse
From the text: Treatment of Rk1 and Rg3 decreased the level of secreted Aβ40 and Aβ42.

[13] = system: Aβ species, CHO-APP cells; experiment: Mass spectrometric analysis of Aβ species produced from CHO-APP cells; assay type: cell-based, Chinese hamster; settings: mass spectrometry, vs DMSO
Procedure: Note that treatment leads to a decrease in Aβ42 species (1-42), and elevation in both Aβ37 (1-37) and Aβ38 (1-38). Mass spectrometric analysis of Aβ species were performed as previously described (Wang R, Sweeny D, Gandy S E, Sisodia S S. The profile of soluble amyloid β-protein in cultured cell media. J. Bio. Chem. 1996; 271: 31894-31902).

For `CSc1ccc(/C=C2/C(C)=C(CC(=O)O)c3cc(F)ccc32)cc1` [sulindac sulfide], the Aβ40 production ([1]; overnight treatment, FIG. 12B) was “slightly affected”, the “cell-free generation of p75-ICD” value ([2]; listed as SS) was “abundantly produced” and the “cell-free generation of p75-ICD” value ([2]; listed as sulinac sulfide) was “did not affect”. The “cell-free generation of NICD” value ([3]; listed as SS) was “abundantly produced”, the “cell-free generation of NICD” value ([3]; listed as sulinac sulfide) was “did not affect” and the “Aβ42 generation in vitro” value ([4]; cell-free γ-secretase assay) was “potently inhibited”. The “cell-free generation of AICD” value ([5]; listed as SS) was “abundantly produced” and the “cell-free generation of AICD” value ([5]; listed as sulinac sulfide) was “did not affect”.
In the case of `CC(C)=CCC[C@](C)(O)[C@H]1CC[C@]2(C)[C@@H]1[C@H](O)C[C@@H]1[C@@]3(C)CC[C@H](O[C@@H]4O[C@H](CO)[C@@H](O)[C@H](O)[C@H]4O)C(C)(C)[C@@H]3CC[C@]12C` [Rh2], the Aβ42-lowering activity [1] is reported as “Yes”, the cell viability ([6]; 50 μM treatment) is reported as “partially affected” and the “affected cell viability (Cytotoxic)” value ([6]; summary of Tables 1-3) is reported as “Cytotoxic”. For the same compound, the “secretion of Aβ42” value [7] was “exhibited Aβ42-lowering effects”.
With `CC(C)=CC/C=C(\C)[C@H]1CC[C@]2(C)[C@@H]1[C@H](O)C[C@@H]1[C@@]3(C)CC[C@H](O[C@@H]4O[C@H](CO)[C@@H](O)[C@H](O)[C@H]4O[C@@H]4O[C@H](CO)[C@@H](O)[C@H](O)[C@H]4O)C(C)(C)[C@@H]3CC[C@]12C` [Rg5] the “generation of Aβ42 (Aβ42 levels in the medium, ELISA, normalized to intracellular full-length APP)” value ([1]; 50 μg/ml, 8 hrs, FIG. 4) was “reduce the generation of Aβ42”, the “Aβ42-lowering effect compared with other agents” value ([1]; CHO-APP cells) was “much smaller” and the “preference for Aβ42 vs. Aβ40 in cell-based assay” value [1] was “preferentially reduced Aβ42 (vs. Aβ40)”. For the same compound, the “Aβ42 in the medium, dose-response” value ([1]; dose-dependent, FIG. 5 / FIG. 12A) was “reduced Aβ42; also recorded: lower Aβ42 in a dose-dependent manner”, the “production of Aβ42 in cells” value [1] was “lower the production of Aβ42” and the Aβ42 production ([1]; overnight treatment, FIG. 12B) was “reduce Aβ42 production”. The Aβ42-lowering activity [1] was “Yes”, the “APP C-terminal fragments (γ-secretase substrates), steady-state levels” value [8] was “increased accumulation” and the “full-length APP levels” value [8] was “not affected”. The “production of Aβ42 in mammalian cells” value [9] was “lower the production of Aβ42”, the “APP C-terminal fragments, steady-state levels” value [10] was “increased accumulation” and the “Aβ42-lowering response in PS1 ΔE9 FAD mutant cells compared to PS1 wild-type cells” value [11] was “diminished”. The “potency of Aβ42-reducing activity (rank)” value [7] was “Rk1>/=(20S)Rg3>Rg5>(20R)Rg3; also recorded: less effective”, the “secretion of Aβ42” value [7] was “selectively lowered the secretion of Aβ42” and the “effects on Aβ42 generation compared to Rgk351 and Rk1” value ([7]; wild-type or FAD mutant presenilin 1, FIG. 8) was “much smaller”.
With `CC(C)=CCCC(C)(O)C1CCC2(C)C1C(O)CC1C3(C)CCC(OC4OC(CO)C(O)C(O)C4OC4OC(CO)C(O)C(O)C4O)C(C)(C)C3CCC12C` [(20S)Rg3] the “preference for Aβ42 vs. Aβ40 in cell-based assay” value [1] was “primarily affect Aβ42 production”, the “production of Aβ42 in cells” value [1] was “lower the production of Aβ42” and the “level of secreted Aβ40” value [12] was “decreased”. The “level of secreted Aβ42” value [12] was “decreased”, the “Aβ generation in a cell-free γ-secretase assay” value ([4]; FIG. 15) was “inhibits Aβ generation” and the “Aβ42 generation in vitro” value ([4]; cell-free γ-secretase assay) was “inhibited both Aβ40 and Aβ42 with a similar potency”. For the same compound, the “Aβ40 generation in vitro” value ([4]; cell-free γ-secretase assay, FIG. 15B) was “inhibited both Aβ40 and Aβ42 with a similar potency”, the IC50 ([4]; cell-free γ-secretase assay, FIG. 15B, read-out: IC50 for Aβ40) was 27 ± 4 µM and the IC50 ([4]; cell-free γ-secretase assay, FIG. 15B, read-out: IC50 for Aβ42) was 26 ± 7 µM. The “production of Aβ42 in mammalian cells” value [9] was “lower the production of Aβ42”, the “Aβ42-lowering response in PS1 ΔE9 FAD mutant cells compared to PS1 wild-type cells” value [11] was “diminished” and the “Aβ37 (1-37)” value [13] was “elevation”. For the same compound, the “Aβ38 (1-38)” value [13] was “elevation”, the “Aβ42 species (1-42)” value [13] was “decrease” and the “potency of Aβ42-reducing activity (rank)” value [7] was “Rk1>/=(20S)Rg3>Rg5>(20R)Rg3; also recorded: highest”. For the same compound, the “secretion of Aβ42” value [7] was “selectively lowered the secretion of Aβ42”.
